Here are results for 30 molecules from US10166216B2 (Rigel Pharmaceuticals, Inc., priority 2006, dated 2019).

The experiment concerns the target Axl (Homo sapiens (Human), UniProt P30530). The experiment can be described thus: Phospho-Akt in-cell Western assay (Axl-antibody cross-linking stimulation). The experiment is classed as cell-based. The following applies: inhibition of Axl activity. The gist of the method:
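HeLa cells on poly-L-lysine, starved 24 hrs with Axl/Fc, pre-treated with compound 1 hr at 37° C., then stimulated 5 min with Axl primary/secondary antibody cluster. Fixed cells probed for phospho-Akt by chemiluminescent in-cell Western; signal normalized to crystal violet cell number.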

Setting [1] is: phospho-Akt in-cell Western assay.
Setting [2] is: Hela cells, phospho-Akt readout, Table 1, formula (Ia1).
Where [3] appears, read: Hela cells, phospho-Akt readout, Table 5, formula (Ia3).

Chain of Axl (P30530 26-894): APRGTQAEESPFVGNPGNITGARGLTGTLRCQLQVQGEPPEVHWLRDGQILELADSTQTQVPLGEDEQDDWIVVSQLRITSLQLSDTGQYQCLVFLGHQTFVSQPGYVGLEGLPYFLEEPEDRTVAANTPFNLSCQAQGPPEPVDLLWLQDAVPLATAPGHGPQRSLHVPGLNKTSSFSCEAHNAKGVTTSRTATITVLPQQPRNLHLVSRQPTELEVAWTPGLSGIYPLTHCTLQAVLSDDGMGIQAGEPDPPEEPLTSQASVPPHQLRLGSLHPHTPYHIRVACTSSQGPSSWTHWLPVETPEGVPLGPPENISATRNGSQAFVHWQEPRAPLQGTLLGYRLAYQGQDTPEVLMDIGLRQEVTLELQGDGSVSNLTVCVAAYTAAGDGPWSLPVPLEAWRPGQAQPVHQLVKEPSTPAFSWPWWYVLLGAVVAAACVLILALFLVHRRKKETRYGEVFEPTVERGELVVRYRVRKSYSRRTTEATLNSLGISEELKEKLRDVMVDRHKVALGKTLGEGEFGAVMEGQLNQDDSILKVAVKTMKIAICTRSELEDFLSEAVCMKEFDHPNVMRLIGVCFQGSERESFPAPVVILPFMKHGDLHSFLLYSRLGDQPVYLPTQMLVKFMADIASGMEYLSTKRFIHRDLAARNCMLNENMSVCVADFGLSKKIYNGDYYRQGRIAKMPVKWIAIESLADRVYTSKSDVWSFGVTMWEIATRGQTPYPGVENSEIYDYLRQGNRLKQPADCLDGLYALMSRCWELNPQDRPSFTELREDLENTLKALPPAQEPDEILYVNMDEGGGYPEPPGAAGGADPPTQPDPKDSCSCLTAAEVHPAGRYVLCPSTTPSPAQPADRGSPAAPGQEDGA

For the molecule `Cc1cc(Nc2nc(N)n(-c3ncnc4c(C)csc34)n2)ccc1N1CCN([C@H]2C[C@@H]3CC[C@H]2C3)CC1` [Compound 252, 1-(7-methylthieno[3,2-d]pyrimidin-4-yl)-N^3-(3-methyl-4-(4-((1S,2S,4R)-bicyclo[2.2.1]heptan-2-yl)piperazin-1-yl)phenyl)-1H-1,2,4-triazole-3,5-diamine], under setting [1], the IC50 (as a rule, the concentration that inhibits the measured activity by half) was less than 1000 nM.

Turning to `COc1cc2c(C)nnc(-n3nc(Nc4ccc(N5CCN([C@H]6C[C@@H]7CC[C@H]6C7)CC5)c(F)c4)nc3N)c2cc1OC` [Compound 228, 1-(6,7-dimethoxy-1-methylphthalazin-4-yl)-N^3-(3-fluoro-4-(4-((1S,2S,4R)-bicyclo[2.2.1]heptan-2-yl)piperazin-1-yl)phenyl)-1H-1,2,4-triazole-3,5-diamine], the 50% inhibitory concentration (IC50) under setting [1] is more than 20000 nM. Same read-out and setting: with `Cc1csc2c(-n3nc(Nc4ccc(N5CCN([C@H]6C[C@@H]7CC[C@H]6C7)[C@@H](C)C5)c(F)c4)nc3N)nc(Cl)nc12` [Compound 257] the figure was less than 1000 nM. As to `Cc1cc(O)nc(-n2nc(Nc3ccc(OCCN4CCCC4)cc3)nc2N)n1` [Compound 42, 2-(5-amino-3-(4-(2-(pyrrolidin-1-yl)ethoxy)phenylamino)-1H-1,2,4-triazol-1-yl)-6-methylpyrimidin-4-ol], the IC50 under setting [2] was more than 20000 nM.

Turning to `Nc1nc(Nc2ccc(OCCN3CCCC3)c(Cl)c2)nn1-c1ncnc2sc3c(c12)CCCC3` [Compound 67, N^3-(3-chloro-4-(2-(pyrrolidin-1-yl)ethoxy)phenyl)-1-(5,6,7,8-tetrahydrobenzo[4,5]thieno[2,3-d]pyrimidin-4-yl)-1H-1,2,4-triazole-3,5-diamine], under setting [2], the 50% inhibitory concentration (IC50) is less than 1000 nM. Molecule `Nc1nc(Nc2cccc(O)c2)nn1-c1ccccn1` [Compound 150, 3-(5-amino-1-(pyridin-2-yl)-1H-1,2,4-triazol-3-ylamino)phenol] showed a half-maximal inhibitory concentration (IC50) under setting [3] of more than 20000 nM. Take `Nc1nc(Nc2ccc(OCCN3CCCC3)c(F)c2)nn1-c1ncnc2sc3c(c12)CCCC3` [Compound 68, N^3-(3-fluoro-4-(2-(pyrrolidin-1-yl)ethoxy)phenyl)-1-(5,6,7,8-tetrahydrobenzo[4,5]thieno[2,3-d]pyrimidin-4-yl)-1H-1,2,4-triazole-3,5-diamine]: the IC50 under setting [2] was less than 1000 nM. On the same count and under the same terms, as for `Nc1nc(Nc2ccc(OCCN3CCCC3)cc2)nn1-c1ccccc1F` [Compound 34, 1-(2-fluorophenyl)-N^3-(4-(2-(pyrrolidin-1-yl)ethoxy)phenyl)-1H-1,2,4-triazole-3,5-diamine], the figure is more than 20000 nM. On the same count and under the same terms, as for `Nc1nc(Nc2ccc(OCCN3CCCC3)cc2)nn1-c1ncnc2cc(-c3ccccc3)sc12` [Compound 52, 1-(6-phenylthieno[3,2-d]pyrimidin-4-yl)-N^3-(4-(2-(pyrrolidin-1-yl)ethoxy)phenyl)-1H-1,2,4-triaozle-3,5-diamine], the figure is less than 1000 nM. Under setting [2], `CC1CCCN1CCOc1ccc(Nc2nc(N)n(-c3nc4ccccc4s3)n2)cc1` (stereo not drawn) [Compound 22, 1-(benzo[d]thiazol-2-yl)-N^3-(4-(2-(2-methylpyrrolidin-1-yl)ethoxy)phenyl)-1H-1,2,4-triazole-3,5-diamine] registered a half-inhibitory concentration (IC50) of more than 20000 nM.

Turning to `Nc1nc(Nc2ccc(OCCN3CCCC3)cc2)nn1-c1ncnc2ccsc12` [Compound 54, N^3-(4-(2-(pyrrolidin-1-yl)ethoxy)phenyl)-1-(thieno[3,2-d]pyrimidin-4-yl)-1H-1,2,4-triazole-3,5-diamine], under setting [2], the IC50 was less than 1000 nM. Regarding `CCOC(=O)c1ccc(Nc2nc(N)n(-c3ccnc(Cl)c3)n2)cc1` [Compound 143, ethyl 4-(5-amino-1-(2-chloropyridin-4-yl)-1H-1,2,4-triazol-3-ylamino)benzoate], under setting [3], the IC50 is more than 20000 nM.

On to `Cc1csc2c(-n3nc(Nc4ccc(N5CCC(N6CCCCC6)CC5)c(F)c4)nc3N)nc(Cl)nc12` [Compound 210, 1-(7-methyl-2-chlorothieno[3,2-d]pyrimidin-4-yl)-N^3-(3-fluoro-4-(4-piperidin-1-ylpiperidin-1-yl)phenyl)-1H-1,2,4-triazole-3,5-diamine], for which the IC50 under setting [3] is less than 1000 nM. For `Cc1csc2c(-n3nc(Nc4ccc(N5CCN([C@H]6C[C@@H]7CC[C@H]6C7)[C@@H](C)C5)c(F)c4)nc3N)ncnc12` [Compound 251, 1-(7-methylthieno[3,2-d]pyrimidin-4-yl)-N^3-(3-fluoro-4-(3-(S)-methyl-4-((1S,2S,4R)-bicyclo[2.2.1]heptan-2-yl)piperazin-1-yl)phenyl)-1H-1,2,4-triazole-3,5-diamine], the half-inhibitory concentration (IC50) under setting [1] is less than 1000 nM. Under setting [1], `Nc1nc(Nc2ccc(N3CCN([C@H]4C[C@@H]5CC[C@H]4C5)CC3)cc2)nn1-c1ncnc2sccc12` [Compound 190, 1-(thieno[2,3-d]pyrimidin-4-yl)-N^3-(4-(4-((1S,2S,4R)-bicyclo[2.2.1]heptan-2-yl)-piperazin-1-yl)phenyl)-1H-1,2,4-triazole-3,5-diamine] returned an IC50 of less than 1000 nM. Still for that read-out and setting: with `Nc1nc(Nc2ccc(N3CCN(C4CC5CCC4C5)CC3)cc2)nn1-c1ncnc2c1sc1ncccc12` (stereo not drawn) [Compound 184, 1-(pyrido[2,3-b]pyrimido[4,5-d]thiophene-4-yl)-N^3-(4-(4-(bicyclo[2.2.1]heptan-2-yl)-piperazin-1-yl)phenyl)-1H-1,2,4-triazole-3,5-diamine] the figure was less than 1000 nM; with `Cc1nc(-n2nc(Nc3ccc(N4CCN(C5CC6CCC5C6)CC4)cc3)nc2N)c2c(C)c(C)sc2n1` (stereo not drawn) [Compound 137, N^3-(4-(4-(bicyclo[2.2.1]heptan-2-yl)piperazin-1-yl)phenyl)-1-(2,5,6-trimethylthieno[2,3-d]pyrimidin-4-yl)-1H-1,2,4-triazole-3,5-diamine], 1000 to 10000 nM. `Nc1nc(Nc2ccc(OCCN3CCCC3)c(F)c2)nn1-c1cnc2ccccc2n1` [Compound 55, N^3-(3-fluoro-4-(2-(pyrrolidin-1-yl)ethoxy)phenyl)-1-(quinoxalin-2-yl)-1H-1,2,4-triazole-3,5-diamine] came in with a half-inhibitory concentration (IC50) under setting [2] of less than 1000 nM. On the same count and under the same terms, as for `Nc1nc(Nc2ccc(OCCN3CCCC3)c(Cl)c2)nn1-c1nc2ccccc2s1` [Compound 39, 1-(benzo[d]thiazol-2-yl)-N^3-(3-chloro-4-(2-(pyrrolidin-1-yl)ethoxy)phenyl)-1H-1,2,4-triazole-3,5-diamine], the figure is less than 1000 nM. The same measure, in the same setting: as for `CC1CCCN1CCOc1ccc(Nc2nc(N)n(-c3nc4ccccc4[nH]3)n2)cc1` (stereo not drawn) [Compound 24, 1-(1H-benzo[d]imidazol-2-yl)-N^3-(4-(2-(2-methylpyrrolidin-1-yl)ethoxy)phenyl)-1H-1,2,4-triazole-3,5-diamine], the figure is more than 20000 nM.

Turning to `COc1cc2ncnc(-n3nc(Nc4ccc(N5CCC(N6CCCCC6)CC5)c(F)c4)nc3N)c2cc1OC` [Compound 209, 1-(6,7-dimethoxyquinazolin-4-yl)-N^3-(3-fluoro-4-(4-piperidin-1-ylpiperidin-1-yl)phenyl)-1H-1,2,4-triazole-3,5-diamine], under setting [3], the IC50 is less than 1000 nM. In the case of `COc1cc2ncnc(-n3nc(Nc4ccc(N5CCN(C6CCCCC6)CC5)c(Cl)c4)nc3N)c2cc1OC` [Compound 114, N^3-(3-chloro-4-(4-cyclohexylpiperazin-1-yl)phenyl)-1-(6,7-dimethoxyquinazolin-4-yl)-1H-1,2,4-triazole-3,5-diamine], the IC50 under setting [1] is less than 1000 nM. Turning to `COc1cc2ncnc(-n3nc(Nc4ccc5c(c4)CCC(NC4CC6CCC4C6)CC5)nc3N)c2cc1OC` (stereo not drawn) [Compound 223, 1-(6,7-dimethoxyquinazolin-4-yl)-N^3-(7-(N-bicyclo[2.2.1]heptan-2-yl)amino-6,7,8,9-tetrahydro-5H-benzo[7]annulene-2-yl)-1H-1,2,4-triazole-3,5-diamine], for the setting “Hela cells, phospho-Akt readout, Table 7, formula (Ia4)”, the IC50 is less than 1000 nM. `COc1cc2ncnc(-n3nc(Nc4ccc(N5CCOCC5)cc4)nc3N)c2cc1OC` [Compound 158, 1-(6,7-dimethoxyquinazolin-4-yl)-N^3-(4-morpholinophenyl)-1H-1,2,4-triazole-3,5-diamine]: the concentration for half-maximal inhibition (IC50) under setting [3] was less than 1000 nM.

Turning to `Nc1nc(Nc2ccc(N3CCN(C4CC5CCC4C5)CC3)cc2)nn1-c1ncnc2scc(-c3cccs3)c12` (stereo not drawn) [Compound 185, 1-(5-(thiophen-2-yl)thieno[2,3-d]pyrimidin-4-yl)-N^3-(4-(4-(bicyclo[2.2.1]heptan-2-yl)-piperazin-1-yl)phenyl)-1H-1,2,4-triazole-3,5-diamine], the IC50 under setting [1] is more than 20000 nM.

Consider `Nc1nc(Nc2ccc(OCCN3CCCC3)c(F)c2)nn1-c1nccc2ccccc12` [Compound 58, N^3-(3-fluroo-4-(2-(pyrrolidin-1-yl)ethoxy)phenyl)-1-(isoquinolin-1-yl)-1H-1,2,4-triaozle-3,5-diamine], for which, under setting [2], the concentration for half-maximal inhibition (IC50) is less than 1000 nM. The same measure, in the same setting: as for `Nc1nc(Nc2ccc(OCCN3CCCCC3)cc2)nn1-c1ccnc(N2CCOCC2)c1` [Compound 15, 1-(2-morpholinopyridin-4-yl)-N^3-(4-(2-(piperidin-1-yl)ethoxy)phenyl)-1H-1,2,4-triazole-3,5-diamine], the figure is more than 20000 nM. As for `COc1cc2cnc(-n3nc(Nc4ccc(N5CCN([C@H]6C[C@@H]7CC[C@H]6C7)CC5)cc4)nc3N)nc2cc1OC` (racemic) [Compound 182, 1-(6,7-dimethoxyquinazolin-2-yl)-N^3-(4-(4-((1S,2S,4R)-bicyclo[2.2.1]heptan-2-yl)-piperazin-1-yl)phenyl)-1H-1,2,4-triazole-3,5-diamine], under setting [1], the half-inhibitory concentration (IC50) is more than 20000 nM. Under setting [1], `Cc1cc(Nc2nc(N)n(-c3nc(Cl)nc4c(C)csc34)n2)ccc1N1CCN(C2CC3CCC2C3)CC1` (stereo not drawn) [Compound 225, 1-(7-methyl-2-chlorothieno[3,2-d]pyrimidin-4-yl)-N^3-(3-methyl-4-(4-(bicyclo[2.2.1]heptan-2-yl)piperazin-1-yl)phenyl)-1H-1,2,4-triazole-3,5-diamine] showed an IC50 of less than 1000 nM. On the same count and under the same terms, as for `COc1cc2c(-n3nc(Nc4ccc(N5CCN(C6CC7CCC6C7)CC5)cc4)nc3N)nc(Cl)nc2cc1O` (stereo not drawn) [Compound 102, 4-(5-amino-3-(4-(4-(bicyclo[2.2.1]heptan-2-yl)piperazin-1-yl)phenylamino)-1H-1,2,4-triazol-1-yl)-2-chloro-6-methoxyquinazolin-7-ol], the figure is less than 1000 nM.
